pIC50: −log10 of the molar value. In brackets after ≈: the same amount, converted by molar mass. Read-outs that look alike come from different tables or passages of the source.
Tests used:
[1] = system: S. aureus Smith; experiment: Antibacterial activity (MIC), S. aureus; assay type: cell-based; conditions: Staphylococcus aureus
Source text: (§1) As used herein, a minimum inhibitory concentration (MIC) for bacterial growth assay is the lowest level of a compound needed to cause an inhibition to bacterial growth in culture medium. In certain embodiments, the antibacterial activity of compounds herein, measured as MIC.
(§2) In certain embodiments, GSK3 inhibitors provided herein are substantially free of antibacterial activity or having very low antibacterial activity. The antibacterial activity can be measured by methods known in the art by estimating a minimum inhibitory concentration (MIC) for test compounds. A MIC is the lowest level of a compound needed to cause an inhibition to bacterial growth in a culture medium. […] (Clinical and Laboratory Standards Institute. Methods for Dilution Antimicrobial Susceptibility Tests for Bacteria That Grow Aerobically; Approved Standard-Sixth Edition: CLSI document […]. CLSI, Wayne, Pa. (2003))
(§3) Antibacterial activity for E. coli, ATCC8739 andS. aureus Smith expressed as MIC (μM) is provided as follows: […]

[2] = system: E. coli, ATCC8739; experiment: Antibacterial activity (MIC), E. coli; assay type: cell-based; conditions: Escherichia coli
Source text: as §1, §2, §3

[3] = biological target: T1, recombinant full-length human GSK3β (Homo sapiens, UniProt P49841); experiment: Luciferase-coupled cell-free GSK3β kinase assay; assay type: biochemical
T1 construct: recombinant full-length human GSK3β (Upstate); purchased Upstate
Description: For compounds in Tables 1 and 2, IC50 (μM) for GSK3β enzyme in cell free assay is provided as follows:
Luciferase-Coupled Protein Kinase Assays
All coupled-luciferase assays are performed by using a brief incubation with firefly luciferase (Promega) after completion of the kinase assay. KinaseGlo Plus is used for reading kinase reactions with ATP>10 μM, KinaseGlo for ATP <10 μM. The assay volume in a 384-well plate for the kinase reaction is 30 microliters.
10-25 ng of recombinant full-length human GSK3β (Upstate) is incubated in the presence or absence of compound at varying concentrations for 1 hour at 30 degrees Celsius in 20 mM MOPS, pH 7.0, 10 mM magnesium acetate, 0.2 mM EDTA, 2 mM EGTA, 30 mM magnesium chloride, 62.5 μM phospho-glycogen synthase peptide-2, 5 μM ATP, 10 mM β-glycerol phosphate, 1 mM sodium orthovanadate and 1 mM dithiothreitol. Proceed to KinaseGlo luciferase reaction (see below).
Following the completion of the kinase reaction an equal volume of KinaseGlo or KinaseGlo Plus luciferase reagent (Promega) is added and the luminescence read using a luminescence plate reader within 5-10 minutes. Compound activity is expressed as % inhibition relative to maximal inhibition observed at the maximal dose and IC50 values then calculated using curve fitting software (GraphPad Prizm).

[4] = Table 1, read-out: Antibacterial MIC (μM) S. aureus Smith
[5] = ATCC8739, Table 1, E. coli ATCC8739, read-out: Antibacterial MIC (μM) E.Coli
[6] = Table 2, S. aureus Smith, read-out: Antimicrobial MIC [μM] S. aureus
[7] = ATCC8739, Table 2, E. coli ATCC8739, read-out: Antimicrobial MIC [μM] E. Coli

T1 sequence (P49841 whole entry): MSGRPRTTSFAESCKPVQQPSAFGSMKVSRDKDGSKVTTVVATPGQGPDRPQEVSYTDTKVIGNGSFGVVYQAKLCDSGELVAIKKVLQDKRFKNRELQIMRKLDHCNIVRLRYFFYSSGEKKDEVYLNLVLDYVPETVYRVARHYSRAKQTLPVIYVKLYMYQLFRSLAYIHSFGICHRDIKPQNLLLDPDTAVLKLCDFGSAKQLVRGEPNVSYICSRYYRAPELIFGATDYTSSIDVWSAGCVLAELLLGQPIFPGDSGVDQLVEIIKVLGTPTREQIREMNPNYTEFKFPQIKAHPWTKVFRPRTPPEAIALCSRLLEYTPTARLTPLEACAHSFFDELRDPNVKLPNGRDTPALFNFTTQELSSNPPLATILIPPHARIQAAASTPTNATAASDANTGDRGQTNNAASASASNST

Row | Compound | MIC ([1]; read-out: Antibacterial MIC (μM) S. aureus Smith) [µM] | MIC ([2]; ATCC8739, read-out: Antibacterial MIC (μM) E.Coli) [µM] | pIC50 ([3]; Table 1) | MIC [1, 4] [µM] | MIC [2, 5] [µM] | MIC [1, 6] [µM] | MIC [2, 7] [µM] | pIC50 ([3]; Table 2)
1 | Nc1c(F)c(NCCCn2ccnc2)c(F)c2c1c(=O)c(C(=O)O)cn2CCCn1ccnc1 [compound 61] | > 50 | > 50 | 6.30 to 7.00 |  |  |  |  | 
2 | Nc1c(F)c(NCCc2ccccc2)c(F)c2c1c(=O)c(C(=O)O)cn2C1CC1 [compound 1] |  |  | 6.30 to 7.00 | < 0.5 | 0.5 to 10 (≈ 0.2 to 3.99 µg/mL) |  |  | 
3 | CC(C)[C@@H]1COc2c(NCCCn3cnc4ccccc43)c(F)c(N)c3c(=O)c(C(=O)O)cn1c23 [compound 65] |  |  |  |  |  | 0.5 to 10 (≈ 0.24 to 4.8 µg/mL) | 0.5 to 10 (≈ 0.24 to 4.8 µg/mL) | > 7.00
4 | Nc1c(F)c(NCCNc2ccccn2)c2c3c1c(=O)c(C(=O)O)cn3[C@@H](Cc1ccccc1)CO2 [Example 120] |  |  |  |  |  | 10 to 50 (≈ 4.9 to 24.5 µg/mL) | 10 to 50 (≈ 4.9 to 24.5 µg/mL) | 6.30 to 7.00
5 | Nc1c(F)c(NCCCc2ccccc2)c(F)c2c1c(=O)c(C(=O)O)cn2CCCn1ccnc1 [compound 65] |  |  | 6.30 to 7.00 | 10 to 50 (≈ 4.82 to 24.1 µg/mL) | 10 to 50 (≈ 4.82 to 24.1 µg/mL) |  |  | 
6 | CC(C)OCCCNc1c(F)c(N)c2c(=O)c(C(=O)O)cn3c2c1OCC3(C)C [compound 40] |  |  |  |  |  | > 50 | > 50 | 6.30 to 7.00
7 | CC1(C)COc2c(NCCCn3cnc4ccccc43)c(F)c(N)c3c(=O)c(C(=O)O)cn(c23)C1 [compound 52] |  |  |  |  |  | 0.5 to 10 (≈ 0.24 to 4.8 µg/mL) | 0.5 to 10 (≈ 0.24 to 4.8 µg/mL) | 6.30 to 7.00
8 | Cc1c(C(=O)O)c(=O)c2c(N)c(F)c(NCCNc3ccccn3)c(OC(C)C)c2n1C1CC1 [Example 127] |  |  |  |  |  | 0.5 to 10 (≈ 0.235 to 4.7 µg/mL) | 10 to 50 (≈ 4.7 to 23.5 µg/mL) | 6.30 to 7.00
9 | C[C@@H]1COc2c(NCCCn3cnc4ccccc43)c(F)c(N)c3c(=O)c(C(=O)O)cn1c23 [compound 32] |  |  |  |  |  | 10 to 50 (≈ 4.51 to 22.6 µg/mL) | 10 to 50 (≈ 4.51 to 22.6 µg/mL) | 6.30 to 7.00
10 | CC1(C)COc2c(NCCNc3cccc4ccccc34)c(F)c(N)c3c(=O)c(C(=O)O)cn1c23 [compound 36] |  |  |  |  |  | 10 to 50 (≈ 4.77 to 23.8 µg/mL) | 10 to 50 (≈ 4.77 to 23.8 µg/mL) | > 7.00
11 | CC(C)OCCCNc1c(F)c(N)c2c(=O)ccn(C3CCCC3)c2c1F [compound 75] |  |  | 6.30 to 7.00 | > 50 | > 50 |  |  | 
12 | Nc1c(F)c(NC(=O)CCc2ccccc2)c(F)c2c1c(=O)c(C(=O)O)cn2C1CC1 [Example 126] |  |  |  |  |  | 0.5 to 10 (≈ 0.214 to 4.27 µg/mL) | 0.5 to 10 (≈ 0.214 to 4.27 µg/mL) | < 6.00
13 | COc1c(NCCNc2ccccn2)c(Cl)c(N)c2c(=O)c(C(=O)O)cn(C3CC3)c12 [Example 121] |  |  |  |  |  | 0.5 to 10 (≈ 0.222 to 4.44 µg/mL) | 10 to 50 (≈ 4.44 to 22.2 µg/mL) | > 7.00
14 | Nc1c(F)c(NCCc2ccc(F)cc2)c(F)c2c1c(=O)c(C(=O)O)cn2C1CC1 [compound 5] |  |  | 6.30 to 7.00 | < 0.5 | 0.5 to 10 (≈ 0.209 to 4.17 µg/mL) |  |  | 
15 | COc1c(NCCCn2ccnc2)c(F)c(N)c2c(=O)c(C(=O)O)cn(C3CC3)c12 [compound 69] |  |  | > 7.00 | 0.5 to 10 (≈ 0.208 to 4.15 µg/mL) | 10 to 50 (≈ 4.15 to 20.8 µg/mL) |  |  | 
16 | Nc1c(F)c(NCCCn2ccnc2)c(F)c2c1c(=O)c(C(=O)O)cn2C1CC1 [compound 23] |  |  | > 7.00 | 0.5 to 10 (≈ 0.202 to 4.03 µg/mL) | 0.5 to 10 (≈ 0.202 to 4.03 µg/mL) |  |  | 
17 | Nc1c(F)c(NCCNc2ccccn2)c(F)c2c1c(=O)ccn2C1CCCC1 [compound 76] |  |  | > 7.00 | > 50 | > 50 |  |  | 
18 | Nc1c(F)c(NCCNc2ccccn2)c2c3c1c(=O)c(C(=O)O)cn3[C@@H](CF)CO2 [Example 134] |  |  |  |  |  | < 0.5 | < 0.5 | > 7.00
19 | CC1(C)COc2c(NCCNc3ccccn3)c(F)c(N)c3c(=O)c(C(=O)O)cn(c23)C1 [compound 24] |  |  |  |  |  | 0.5 to 10 (≈ 0.221 to 4.41 µg/mL) | 0.5 to 10 (≈ 0.221 to 4.41 µg/mL) | 6.30 to 7.00
20 | Nc1c(F)c(NCCCc2ccccc2)c2c3c1c(=O)c(C(=O)O)cn3CCO2 [compound 8] |  |  |  |  |  | 10 to 50 (≈ 3.97 to 19.9 µg/mL) | 10 to 50 (≈ 3.97 to 19.9 µg/mL) | < 6.00
21 | CC1(C)COc2c(NCCCc3ccccc3)c(F)c(N)c3c(=O)c(C(=O)O)cn1c23 [compound 38] |  |  |  |  |  | 10 to 50 (≈ 4.25 to 21.3 µg/mL) | 10 to 50 (≈ 4.25 to 21.3 µg/mL) | > 7.00
22 | Nc1c(F)c(NCCNc2ccccn2)c(F)c2c1c(=O)ccn2CCc1ccccc1 [compound 63] |  |  | 6.30 to 7.00 | 10 to 50 (≈ 4.35 to 21.8 µg/mL) | 10 to 50 (≈ 4.35 to 21.8 µg/mL) |  |  | 
23 | CC1COc2c(NCCNc3cccc(C(F)(F)F)n3)c(F)c(N)c3c(=O)c(C(=O)O)cn1c23 (stereo not drawn) [compound 12] |  |  |  |  |  | 0.5 to 10 (≈ 0.241 to 4.81 µg/mL) | 10 to 50 (≈ 4.81 to 24.1 µg/mL) | > 7.00

Source: patent US8063221B2, “Aminoquinolones as GSK-3 inhibitors” (Kyorin Pharmaceutical Co., Ltd., priority 2006, dated 2011)
